Data published in PMC10342533, “Novel Tetrazole Derivatives Targeting Tubulin Endowed with Antiproliferative Activity against Glioblastoma Cells” (International Journal of Molecular Sciences, 2023).
“And” between values parts separate entries of the source, which are not always exact repeats. Identical values can stand only once.

Assays:
[1] = system: U87 MG cells; assay: Apoptotic cell death quantification, Annexin V-FITC/PI, U87 MG; format: cell-based, human; details: 72 h, 100 nM; for Necrotic cells: PI+ AnV−; for Live cells: PI− AnV−
Experimental: To characterize the cell death mechanism induced by the representative compounds 10, 12, or 14 at 100 nM on HeLa, MCF7, and U87 MG cells, dual-channel flow cytometry studies were carried out for cells in the absence (negative control) or presence of compounds 72 h after treatment. Fluorescein isothiocyanate-labeled Annexin V (FITC-AnV) and propidium iodide (PI) were used for double staining. Regarding their response to AnV and PI, cells can be identified as viable (PI−, AnV−), early apoptotic (PI−, AnV+), late apoptotic or secondary necrotic (PI+, AnV+), or necrotic (PI+, AnV−). The translocation of the phosphatidylserine from the inner to the outer cell membrane causes the response of apoptotic cells to AnV, whereas only cells suffering some kind of membrane disintegration (late apoptotic or necrotic cells) allow PI permeation.
Following the manufacturer’s guidelines, an Annexin V-FITC/PI apoptosis detection kit (Immunostep, Salamanca, Spain) was used to quantify HeLa, MCF7, or U87 MG cells. Cells were seeded in 12-well plates (5·10^4 cells/mL, 1 mL/well) and incubated in complete DMEM medium (see above) at 37 °C and 5% CO2 atmosphere for 24 h. Then, the cells were treated with selected compounds (10, 12, or 14) at 100 nM, and untreated cells were used as negative controls. Then, 72 h after incubation, the cells were harvested, centrifugated, resuspended in the Annexin V binding buffer, and incubated in darkness with Annexin V-FITC/PI for 15 min at room temperature. The samples were analyzed by using a BD Accuri™ C6 Plus Flow Cytometer (BD Biosciences), and acquired data were analyzed via BD Accuri™ C6 Software (version 1.0.264.21).

[2] = system: HepG2 (hepatocellular carcinoma); assay: Cell growth inhibition, MTT assay, HepG2; format: cell-based; details: Homo sapiens
Experimental: (§1) The ability of the synthesized compounds to inhibit the cell proliferation of human cancer cell lines was assayed by measuring cell viability through the use of the MTT method 72 h after treatment. For this purpose, representative cell lines of the most frequent kinds of cancer were selected, including the following: HeLa (cervix epithelioid carcinoma), MCF7 (breast adenocarcinoma), U87 MG (glioblastoma), T98G (temozolomide resistant glioblastoma), HepG2 (hepatocellular carcinoma), HCT8 (colorectal carcinoma), and HT-29 (colon adenocarcinoma).
(§2) The cell lines were obtained from ATTC (Manassas, VA, USA). […] The cells were periodically tested for Mycoplasma infection by using a MycoAlert kit (Lonza, Norwest, Australia), and only Mycoplasma-free cells were used in the experiments.
(§3) Then, every compound was added (10 µL/well) to a final concentration of 10 µM. Untreated cells were used as negative controls. The antiproliferative activity of compounds was measured 72 h after drug exposure through the MTT assay. […] For this purpose, compounds were used at different concentrations, ranging from 10^−10 to 10^−2 M. Measurements were performed in triplicate, and each experiment was repeated three times. The IC50 values were determined using Origin software (version 9.6, OriginLab, Washington, DC, USA).

[3] = system: HCT8 (colorectal carcinoma); assay: Cell growth inhibition, MTT assay, HCT8; format: cell-based; details: Homo sapiens
Experimental: as §1, §2, §3

[4] = system: microtubule network of U87 MG cells; assay: Immunofluorescence confocal microscopy of microtubule network, U87 MG; format: cell-based, human; details: 24 h, 100 nM, α-tubulin immunofluorescence
Experimental: To elucidate if the interaction of the compounds with tubulin inferred from the in vitro TPI experiments has consequences on cellular microtubules, we studied the effect of representative compounds on the microtubule network of HeLa, MCF7, and U87 MG cells 24 h after treatment via the use of immunofluorescence confocal microscopy through α-tubulin and nuclei labeling.
HeLa, MCF7, and U87 MG cells (8·10^4 cells/mL) were grown on 0.01% poly-L-lysine pre-coated square glass coverslips (22 mm^2), deposited on 6-well plates (1 coverslip/well), and incubated in complete DMEM medium (see above) at 37 °C and 5% CO2 atmosphere for 24 h. Then, the cells were incubated for 24 h in the presence or absence (negative controls) of selected compounds (10, 12, or 14) at 100 nM. After drug treatment incubation, medium was removed, and coverslips were washed three times with PBS, fixed with 4% formaldehyde in PBS for 10 min, permeabilized with 0.5% Triton X-100, (Sigma-Aldrich, St. Louis, MO, USA) in PBS for 90 s at 4 °C, blocked with 10% BSA in PBS for 30 min, and washed with PBS four times. The coverslips were incubated for 1 h with anti-α-tubulin mouse monoclonal antibody (Sigma-Aldrich, St. Louis, MO, USA), diluted 1:200 in PBS containing 3% BSA, washed four times with PBS, and then incubated in darkness with the fluorescent secondary antibody Alexa Fluor 488 goat anti-mouse IgG (Molecular Probes, Invitrogen, Eugenen, OR, USA) and diluted 1:400 in PBS containing 1% BSA for 1.5 h. The coverslips were washed four times with PBS, and a drop of ProLong™ Gold Antifade Mountant containing DAPI (ThermoFisher, Waltham, MA, USA) was added for cell nuclei staining. The samples were analyzed via confocal microscopy, which was performed by using a LEICA SP5 microscope DMI-6000V model coupled to a LEICA LAS AF software computer.

[5] = system: MCF7 cells; assay: Cell cycle analysis by flow cytometry (PI), MCF7; format: cell-based, human; details: 100 nM
Experimental: To assess how tubulin polymerization inhibition and the effects on the microtubule network affect the cell cycle, flow cytometry experiments were performed on HeLa, MCF7, and U87 MG cells 24, 48, and 72 h after treatments with compounds 10, 12, and 14 at 100 nM using propidium iodide (PI) for DNA staining and untreated cells as the negative control.
HeLa, MCF7, or U87 MG cells were seeded in 6-well plates (8·10^4 cells/mL, 2 mL/well) and incubated in complete DMEM Medium (see above) at 37 °C and 5% CO2 atmosphere for 24 h. Then, the cells were treated with selected compounds (10, 12, or 14) at 100 nM, and untreated cells were used as negative controls. Cells were collected 24, 48, or 72 h following treatment and fixed overnight in ethanol/PBS (7:3) at 4 °C. After two washes with PBS, cells were suspended in PBS and incubated in darkness overnight with 0.2 mg/mL RNase A (Sigma-Aldrich, St. Louis, MO, USA), 50 µg/mL propidium iodide (Sigma-Aldrich, St. Louis, MO, USA), and Triton 10x at room temperature. A BD Accuri™ C6 Plus Flow Cytometer (BD Biosciences, Franklin Lakes, NJ, USA) cytometer was used to analyze the samples, and BD Accuri™ C6 Software (version 1.0.264.21) was used for data analysis.

[6] = HCT-8, 72 h after drug exposure

SMILES: CSc1cc(-c2nnnn2-c2ccc3c(ccn3C)c2)cc(Cl)n1 [Compound 10, 5-(5-(2-chloro-6-(methylsulfanyl)pyridin-4-yl)-1H-tetrazol-1-yl)-1-methyl-1H-indole]
- apoptotic response [1]: 70–74%
- Necrotic cells [1]: 15–19%
- Live cells [1]: 9–15%
- IC50 ([2]; 72 h after drug exposure): 37 nM
- IC50 ([2]; mean ± SD, Table S1): 37.1 ± 0.2 nM
- IC50 [3, 6]: 40 nM
- effect on microtubule network [4]: severe microtubule network disruption
- G0/G1 population ([5]; MCF7, 24 h): 22.5 % Cells
- G2/M population ([5]; MCF7, 24 h): 65.8 % Cells
- S population ([5]; MCF7, 24 h): 3.9 % Cells
- SubG0/G1 population ([5]; MCF7, 24 h): 7.7 % Cells
- G0/G1 population ([5]; MCF7, 48 h): 16.9 % Cells
- G2/M population ([5]; MCF7, 48 h): 58.1 % Cells
- S population ([5]; MCF7, 48 h): 4.6 % Cells
- SubG0/G1 population ([5]; MCF7, 48 h): 20.4 % Cells
- G0/G1 population ([5]; MCF7, 72 h): 13.7 % Cells
- G2/M population ([5]; MCF7, 72 h): 54.8 % Cells
- S population ([5]; MCF7, 72 h): 4.4 % Cells
- SubG0/G1 population ([5]; MCF7, 72 h): 27 % Cells and 27.2 % Cells

SMILES: Cn1cc(C=O)c2cc(-n3nnnc3-c3cc(Cl)nc(Cl)c3)ccc21 [Compound 12, 5-(5-(2,6-dichloropyridin-4-yl)-1H-tetrazol-1-yl)-1-methyl-1H-indole-3-carbaldehyde]
- apoptotic response [1]: 70–74%
- Necrotic cells [1]: 15–19%
- Live cells [1]: 9–15%
- IC50 ([2]; 72 h after drug exposure): 36 nM
- IC50 ([2]; mean ± SD, Table S1): 36.4 ± 0.2 nM
- IC50 [3, 6]: 40 nM
- IC50 ([3]; HCT-8, mean ± SD, Table S1): 40.1 ± 0.3 nM
- effect on microtubule network [4]: severe microtubule network disruption
- G0/G1 population ([5]; MCF7, 24 h): 19.4 % Cells
- G2/M population ([5]; MCF7, 24 h): 68.6 % Cells
- S population ([5]; MCF7, 24 h): 7.0 % Cells
- SubG0/G1 population ([5]; MCF7, 24 h): 5.2 % Cells
- G0/G1 population ([5]; MCF7, 48 h): 16.4 % Cells
- G2/M population ([5]; MCF7, 48 h): 62.9 % Cells
- S population ([5]; MCF7, 48 h): 7.9 % Cells
- SubG0/G1 population ([5]; MCF7, 48 h): 13.1 % Cells
- G0/G1 population ([5]; MCF7, 72 h): 15.0 % Cells
- G2/M population ([5]; MCF7, 72 h): 59.1 % Cells
- S population ([5]; MCF7, 72 h): 10.8 % Cells
- SubG0/G1 population ([5]; MCF7, 72 h): 15 % Cells and 15.5 % Cells

SMILES: CSc1cc(-c2nnnn2-c2ccc3c(c2)c(C=O)cn3C)cc(Cl)n1 [Compound 14, 5-(5-(2-chloro-6-(methylsulfanyl)pyridin-4-yl)-1H-tetrazol-1-yl)-1-methyl-1H-indole-3-carbaldehyde]
- apoptotic response [1]: 70–74%
- Necrotic cells [1]: 15–19%
- Live cells [1]: 9–15%
- IC50 ([2]; 72 h after drug exposure): 31 nM
- IC50 ([2]; mean ± SD, Table S1): 31.1 ± 0.3 nM
- IC50 [3, 6]: 29 nM
- IC50 ([3]; HCT-8, mean ± SD, Table S1): 29.4 ± 0.2 nM
- effect on microtubule network [4]: severe microtubule network disruption
- G0/G1 population ([5]; MCF7, 24 h): 22.7 % Cells
- G2/M population ([5]; MCF7, 24 h): 66.0 % Cells
- S population ([5]; MCF7, 24 h): 5.9 % Cells
- SubG0/G1 population ([5]; MCF7, 24 h): 5.2 % Cells
- G0/G1 population ([5]; MCF7, 48 h): 16.8 % Cells
- G2/M population ([5]; MCF7, 48 h): 58.4 % Cells
- S population ([5]; MCF7, 48 h): 6.9 % Cells
- SubG0/G1 population ([5]; MCF7, 48 h): 17.9 % Cells
- G0/G1 population ([5]; MCF7, 72 h): 19.1 % Cells
- G2/M population ([5]; MCF7, 72 h): 38.7 % Cells
- S population ([5]; MCF7, 72 h): 8.1 % Cells
- SubG0/G1 population ([5]; MCF7, 72 h): 34 % Cells and 34.6 % Cells
